Measurements published in patent US20230173076A1, “METABOLICALLY STABLE PEPTIDE ANALOGS” (UNIVERSITÉ DE STRASBOURG, priority 2016, published 2023).
Positions of bridges follow the written chain, without caps; N, C: chain ends. Non-standard residues stand in square brackets, D forms with d. Residues, ends and D or L forms follow the SMILES beside them. ξ: configuration not given here. *: point of attachment. X1 = CCN([C@@H](C)C(=O)C[C@@H](CCCCNC(=O)CCC(F)(F)C(F)(F)C(F)(F)C(F)(F)C(F)(F)C(F)(F)C(F)(F)C(F)(F)F)C(=O)NCC(N)=O)*; Ile(3ξ) = CCC(C)[C@H](N)C(=O)O

Legend:
[1] = Solubility study in water by visual observation
Experimental: (§1) The resulting solution was vortexed 1 min following by 1 min in bath sonication. Solubility was then assessed by visual observation of the resulting dispersion (Clear/Cloudy and presence of particulates).

[2] = Human plasma stability (HPLC-MS/MS); conditions: 37° C.; for Human plasma stability (t1/2): 1 μM; for half-life at 1 μM: human, plasma, Human plasma stability (t1/2)
Experimental: (§2) This procedure is designed to determine the stability of a test compound in blood or plasma from human or animal species in a 96-well plate format. The test compound is quantified at 5 time points by HPLC-MS/MS analysis.
(§3) Test concentration: 1 μM with a final DMSO concentration of 0.5%.
(§4) Experimental protocol : Blood or plasma are pre-warmed at 37° C. water bath for 5 min, followed by addition of the test compound. The incubation is performed in a 37° C. water bath for 2 h. An aliquot of the incubation mixture is transferred to acetonitrile at 0, 0.5, 1, 1.5 and 2 h, respectively. Samples are then mixed and centrifuged. Supernatants are used for HPLC-MS/MS analysis. Reference compounds Propoxycaine and propantheline are tested simultaneously with the test compound in each assay. Analytical methods Samples are analyzed by HPLC-MS/MS using selected reaction monitoring. The HPLC system consists of a binary LC pump with autosampler, a C-18 column, and a gradient. Conditions may be adjusted as necessary. Data analysis Peak areas corresponding to the test compound are recorded. The compound remaining (%) is calculated by comparing the peak area at each time point to time zero. The half-life is calculated from the slope of the initial linear range of the logarithmic curve of compound remaining (%) vs. time, assuming first order kinetics
(§5) Test concentration: 1 μM with a final DMSO concentration of 0.5%. Experimental protocol: Blood or plasma are pre-warmed at 37° C. water bath for 5 min, followed by addition of the test compound. The incubation is performed in a 37° C. water bath for 2 h. An aliquot of the incubation mixture is transferred to acetonitrile at 0, 0.5, 1, 1.5 and 2 h, respectively. Samples are then mixed and centrifuged. Supernatants are used for HPLC-MS/MS analysis. Reference compounds Propoxycaine and propantheline are tested simultaneously with the test compound in each assay. Analytical methods Samples are analyzed by HPLC-MS/MS using selected reaction monitoring. The HPLC system consists of a binary LC pump with autosampler, a C-18 column, and a gradient. Conditions may be adjusted as necessary. Data analysis Peak areas corresponding to the test compound are recorded. The compound remaining (%) is calculated by comparing the peak area at each time point to time zero. The half-life is calculated from the slope of the initial linear range of the logarithmic curve of compound remaining (%) vs. time, assuming first order kinetics
(§6) Test concentration: 1 μM with a final DMSO concentration of 0.5%. Experimental protocol: Blood or plasma are pre-warmed at 37° C. water bath for 5 min, followed by addition of the test compound. The incubation is performed in a 37° C. water bath for 2 h. An aliquot of the incubation mixture is transferred to acetonitrile at 0, 0.5, 1, 1.5 and 2 h, respectively. Samples are then mixed and centrifuged. Supernatants are used for HPLC-MS/MS analysis. Reference compounds Propoxycaine and propantheline are tested simultaneously with the test compound in each assay. Analytical methods Samples are analyzed by HPLC-MS/MS using selected reaction monitoring. The HPLC system consists of a binary LC pump with autosampler, a C-18 column, and a gradient. Conditions may be adjusted as necessary. Data analysis Peak areas corresponding to the test compound are recorded. The compound remaining (%) is calculated by comparing the peak area at each time point to time zero. The half-life is calculated from the slope of the initial linear range of the logarithmic curve of compound remaining (%) vs. time, assuming first order kinetics.

[3] = target: T1, human vasopressin Oxytocin receptor (Homo sapiens, UniProt P30559); assay: Radioligand binding assay, human oxytocin receptor in transfected Chem-1 cells; conditions: read-out: Affinity % of inhibition à 10 nM
T1 construct: expressed in transfected cells; host or cells: Chem-1 cells (membrane homogenates)
T1 sequence (P30559 1-389): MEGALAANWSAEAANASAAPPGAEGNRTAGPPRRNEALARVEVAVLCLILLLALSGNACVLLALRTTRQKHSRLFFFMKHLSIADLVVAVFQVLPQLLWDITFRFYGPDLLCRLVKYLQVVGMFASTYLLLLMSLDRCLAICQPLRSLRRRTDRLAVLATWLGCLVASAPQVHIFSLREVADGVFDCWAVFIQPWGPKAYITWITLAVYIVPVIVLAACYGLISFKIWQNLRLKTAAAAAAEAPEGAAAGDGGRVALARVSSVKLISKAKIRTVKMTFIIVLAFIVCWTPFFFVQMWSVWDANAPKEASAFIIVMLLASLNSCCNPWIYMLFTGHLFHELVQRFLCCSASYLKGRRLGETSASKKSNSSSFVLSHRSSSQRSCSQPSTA
Experimental: Experimental protocol: […] Following incubation, the samples are filtered rapidly under vacuum through glass fiber filters (GF/B, Packard) presoaked with 0.3% PEI and rinsed several times with ice-cold 50 mM Tris-HCl and 0.1% BSA using a 96-sample cell harvester (Unifilter, Packard). The filters are dried then counted for radioactivity in a scintillation counter (Topcount, Packard) using a scintillation cocktail (Microscint 0, Packard). The results are expressed as a percent inhibition of the control radioligand specific binding.

in vitro = conditions: human, plasma, Human plasma stability (t1/2)
Experimental: as §2, §3, §4, §5, §6

Experimental for physchem: as §1

CC[C@H](C)[C@H](NC(=O)[C@H](Cc1ccc(O)cc1)NC(=O)[C@@H](NC(=O)[C@H](CCCNC(=N)N)NC(=O)[C@@H](N)CC(=O)O)C(C)C)C(=O)N[C@@H](Cc1cnc[nH]1)C(=O)N1CCC[C@H]1C(=O)N[C@@H](Cc1ccccc1)C(=O)O [Angiotensin II, reference compound]
solubility at 2 min [1]: > 100 µM

CSCC[C@H](NC(=O)[C@@H]1CCCN1C(=O)CNC(=O)[C@H](CCCCN)NC(=O)[C@H](Cc1c[nH]cn1)NC(=O)[C@H](CO)NC(=O)[C@H](CC(C)C)NC(=O)[C@H](CCCNC(=N)N)NC(=O)[C@@H]1CCCN1C(=O)[C@H](CCCNC(=N)N)NC(=O)[C@H](CCC(N)=O)NC(=O)CCC(F)(F)C(F)(F)C(F)(F)C(F)(F)C(F)(F)C(F)(F)C(F)(F)C(F)(F)F)C(=O)N1CCC[C@H]1C(=O)N[C@@H](Cc1ccccc1)C(=O)O [LE-122]
solubility at 2 min (physchem): > 100 µM | Human plasma stability (t1/2) ([2]; apelin analogs table): 20.68 h | half-life at 1 μM ([2]; apelin analogs table): > 20.7 h

CCC(C)[C@@H]1NC(=O)[C@H](Cc2ccc(O)cc2)NC(=O)[C@@H](N)CSSC[C@@H](C(=O)N(CC)[C@@H](C)C(=O)C[C@@H](CCCCNC(=O)CCC(F)(F)C(F)(F)C(F)(F)C(F)(F)C(F)(F)C(F)(F)C(F)(F)C(F)(F)F)C(=O)NCC(N)=O)NC(=O)[C@H](CC(N)=O)NC(=O)[C@H](CCC(N)=O)NC1=O (some centres unmarked) [SR-11-74] (H-CY[Ile(3ξ)]QNC-X1; disulfide 1-6)
inhibition at 0.01 µM [3]: 91.3% | solubility at 2 min (physchem): > 100 µM | half-life at 1 μM ([2]; oxytocin analogs table): 3.98 h

CC[C@H](C)[C@H](NC(=O)[C@H](Cc1ccc(O)cc1)NC(=O)[C@@H](NC(=O)[C@H](CCCNC(=N)N)NC(=O)[C@H](CC(=O)O)NC(=O)CCC(F)(F)C(F)(F)C(F)(F)C(F)(F)C(F)(F)C(F)(F)C(F)(F)C(F)(F)F)C(C)C)C(=O)N[C@@H](Cc1cnc[nH]1)C(=O)N1CCC[C@H]1C(=O)N[C@@H](Cc1ccccc1)C(=O)O [LE120]
Human plasma stability (t1/2) ([2]; angiotensin II analogs table): >24 h | half-life at 1 μM ([2]; angiotensin II analogs table): > 24 h | solubility at 2 min [1]: > 100 µM

CSCC[C@H](NC(=O)[C@@H]1CCCN1C(=O)CNC(=O)[C@H](CCCCN)NC(=O)[C@H](Cc1c[nH]cn1)NC(=O)[C@H](CO)NC(=O)[C@H](CC(C)C)NC(=O)[C@H](CCCNC(=N)N)NC(=O)[C@@H]1CCCN1C(=O)[C@H](CCCNC(=N)N)NC(=O)[C@H](CCC(N)=O)NC(=O)[C@@H](N)CCCCNC(=O)CCC(F)(F)C(F)(F)C(F)(F)C(F)(F)C(F)(F)C(F)(F)C(F)(F)C(F)(F)F)C(=O)N1CCC[C@H]1C(=O)N[C@@H](Cc1ccccc1)C(=O)O [LE-124]
half-life at 1 μM ([2]; apelin analogs table): 5.95 h

CC[C@H](C)[C@@H]1NC(=O)[C@H](Cc2ccc(O)cc2)NC(=O)[C@@H](N)CSSC[C@@H](C(=O)N2CCC[C@H]2C(=O)N[C@@H](CC(C)C)C(=O)NCC(N)=O)NC(=O)[C@H](CC(N)=O)NC(=O)[C@H](CCC(N)=O)NC1=O [Oxytocin, reference compound]
inhibition at 0.01 µM [3]: 102% | solubility at 2 min (physchem): > 100 µM | half-life at 1 μM (in vitro): 2.45 h
